The source of these data is patent publication US20100112037A1, “S1P RECEPTOR AGONISTS FOR THE TREATMENT OF CEREBRAL MALARIA” (priority 2008, published 2010).

Assay [1] can be described thus: Topical and transdermal administration: blood cell counts (CBC). It is filed as in vivo, F1 hybrid mice. Particulars: topical (200 μL of 1 mg/mL solution) and transdermal patch; measured six hours after administration; FIG. 2. As for the experimental part:
Drug-in-adhesive transdermal patches containing FTY720 were made by dissolving FTY720 in adhesive (Duro-Tak 87-2196, National Starch & Chemical Co.) at a ratio of 1 part compound to 10 parts adhesive (weight:weight). Adhesive containing FTY720 was layered onto a release liner (Scotchpak 1022 PET Film, 3M Corporation) using a Bird applicator with a 50 to 200 micron gap. Organic solvents were removed from the film by baking at 100° C. for 15 minutes. The dried adhesive was then laminated onto a backing membrane (CoTran 9720 polyethylene film, 3M Corporation).
Topical and transdermal dosage forms of FTY720 were administered to F1 hybrid mice (n=5 mice per group). The blood of the mice was collected at various time points for CBC and PK analysis.
Topical dosing of FTY720 was achieved using 200 μL of a 1 mg/mL solution composed of 70% ethanol, 29.9% water, and 0.1% DMSO.
Transdermal dosing was achieved using patches made as described above. Patches were cut from the laminate and applied to bare skin above the front shoulder of the mice. Dosage was controlled by adjusting the thickness of the compound/adhesive applied to the release liner and number or size of patches. Fur was trimmed from the site of application and then shaved to expose bare skin. To improve adhesion, the skin was further prepped by swabbing with 70% ethanol and then allowed to air dry prior to placing the patch.

The next assay has as its system P. berghei ANKA. As to the kind of experiment: Cerebral malaria model (survival of infected mice). It is filed as in vivo, C56B1/6 mice. The conditions noted are these: FTY720 0.3 mg/kg/day by gavage, administered one day prior to malaria infection; vs control; two independent experiments, Log-Rank Test, p=0.0002; FIG. 1. As for the experimental part:
A well characterized and widely used animal model of CM was used to test the efficacy of compounds. See, e.g., Golenser, supra, at 585. In each experiment, two groups of C56B1/6 mice were infected with 1 million parasites (P. berghei ANKA) i.p. in 500 μl of media. The first group was the control group, and the second was treated daily by gavage with FTY720 (0.3 mg/kg/day).
After at least two doses of the drug had been administered, tail vein blood was taken from the mice, and flow cytometry analysis was used to assess the levels of B and T cells, using antibodies to CD3, CD4, CD8 and CD19. The animals were monitored daily for body weight and parasitaemia, and twice daily for survival.

Consider `CCCCCCCCc1ccc(CCC(N)(CO)CO)cc1` [FTY720, 2-amino-2-[2-(4-octylphenyl)ethyl]propane-1,3-diol], for which, in assay [1], the lymphocyte count entry was “affected”, the neutrophil count entry is recorded as “affected” and the “white blood cell count” value was “affected”. Also, the survival result in the assay with P. berghei ANKA is “significant survival advantage”.
